Measured values published in patent US12077503B2, “Substituted cyclic amides and their use as herbicides” (FMC CORPORATION, priority 2015, dated 2024).

What was measured:
Type in all cases: in vivo
[1] = tested on: giant foxtail (Setaria faberii); assay: Test A preemergence; details: Preemergence; for Plant response rating, Foxtail, Giant: 125 g ai/ha, visual injury after approximately 10 d, 0 to 100 scale where 0 is no effect and 100 is complete control; for Foxtail, Giant plant response rating (0 to 100 scale, 0 is no effect, 100 is complete control): 500 g ai/ha, visual injury approx. 10 d
Procedure, shortened: (§1)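 Treatment is preemergence as a directed soil spray after planting, or postemergence at the one- to two-leaf stage, with test chemical in a non-phytotoxic solvent mixture plus surfactant. Plants stay in the greenhouse about 10 d before visual injury scoring on a 0 to 100 scale versus untreated controls.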

[2] = tested on: pigweed (Amaranthus retroflexus); assay: Test A preemergence; details: Preemergence; for Plant response rating, Pigweed: 125 g ai/ha, visual injury after approximately 10 d, 0 to 100 scale where 0 is no effect and 100 is complete control; for Pigweed plant response rating (0 to 100 scale, 0 is no effect, 100 is complete control): 500 g ai/ha, visual injury approx. 10 d
[3] = tested on: Kochia (Kochia scoparia); assay: Test A preemergence; details: Preemergence; for Plant response rating, Kochia: 125 g ai/ha, visual injury after approximately 10 d, 0 to 100 scale where 0 is no effect and 100 is complete control; for Kochia plant response rating (0 to 100 scale, 0 is no effect, 100 is complete control): 500 g ai/ha, visual injury approx. 10 d
Procedure, shortened: as §1

[4] = tested on: ragweed (common ragweed, Ambrosia elatior); assay: Test A preemergence; details: Preemergence; for Plant response rating, Ragweed: 125 g ai/ha, visual injury after approximately 10 d, 0 to 100 scale where 0 is no effect and 100 is complete control
Procedure, shortened: as §1

[5] = tested on: barnyardgrass (Echinochloa crus-galli); assay: Test A preemergence; details: Preemergence; for Plant response rating, Barnyardgrass: 125 g ai/ha, visual injury after approximately 10 d, 0 to 100 scale where 0 is no effect and 100 is complete control; for Barnyardgrass plant response rating (0 to 100 scale, 0 is no effect, 100 is complete control): 500 g ai/ha, visual injury approx. 10 d
Procedure, shortened: as §1

[6] = tested on: ryegrass, Italian (Italian ryegrass, Lolium multiflorum); assay: Test A preemergence; details: Preemergence; for Plant response rating, Ryegrass, Italian: 125 g ai/ha, visual injury after approximately 10 d, 0 to 100 scale where 0 is no effect and 100 is complete control; for Ryegrass, Italian plant response rating (0 to 100 scale, 0 is no effect, 100 is complete control): 500 g ai/ha, visual injury approx. 10 d
Procedure, shortened: as §1

[7] = tested on: giant foxtail (Setaria faberii); assay: Test A postemergence
Procedure, shortened: as §1

[8] = tested on: corn (Zea mays); assay: Test A postemergence
Procedure, shortened: as §1

[9] = tested on: pigweed (Amaranthus retroflexus); assay: Test A postemergence
Procedure, shortened: as §1

[10] = tested on: Kochia (Kochia scoparia); assay: Test A postemergence
Procedure, shortened: as §1

[11] = tested on: Galium (catchweed bedstraw, Galium aparine); assay: Test A postemergence
Procedure, shortened: as §1

[12] = tested on: ragweed (common ragweed, Ambrosia elatior); assay: Test A postemergence
Procedure, shortened: as §1

[13] = tested on: barnyardgrass (Echinochloa crus-galli); assay: Test A postemergence
Procedure, shortened: as §1

[14] = tested on: wheat (Triticum aestivum); assay: Test A postemergence
Procedure, shortened: as §1

[15] = tested on: blackgrass (Alopecurus myosuroides); assay: Test A postemergence
Procedure, shortened: as §1

[16] = tested on: ryegrass, Italian (Italian ryegrass, Lolium multiflorum); assay: Test A postemergence
Procedure, shortened: as §1

[17] = tested on: rice (Oryra sativa); assay: Test B flooded paddy test; details: Flood, 250 g ai/ha; 0 to 100 scale where 0 is no effect and 100 is complete control; 13 to 15 d
Procedure, shortened: (§2)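 Visual ratings (0 none to 100 complete control) are relative to untreated plants, taken 13–15 d after treatment in a greenhouse. Test material went straight into floodwater standing 3 cm above the soil, kept constant, on plants at the 2-leaf stage.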

[18] = tested on: ducksalad (Heteranthera limosa); assay: Test B flooded paddy test; details: Flood, 250 g ai/ha; 0 to 100 scale where 0 is no effect and 100 is complete control; 13 to 15 d
Procedure, shortened: as §2

[19] = tested on: sedge, umbrella (small-flower umbrella sedge, Cyperus difformis); assay: Test B flooded paddy test; details: Flood, 250 g ai/ha; 0 to 100 scale where 0 is no effect and 100 is complete control; 13 to 15 d
Procedure, shortened: as §2

[20] = tested on: barnyardgrass (Echinochloa crus-galli); assay: Test B flooded paddy test; details: Flood, 250 g ai/ha; 0 to 100 scale where 0 is no effect and 100 is complete control; 13 to 15 d
Procedure, shortened: as §2

[21] = 125 g ai/ha, postemergence, visual rating after approx. 10 d, 0 to 100 scale (0 no effect, 100 complete control)
[22] = Postemergence, 500 g ai/ha, 0 to 100 scale where 0 is no effect and 100 is complete control
[23] = 125 g ai/ha, postemergence, visual injury rating on 0 to 100 scale (0 no effect, 100 complete control), approx. 10 d

## CN1CC(c2cccc(OC(F)(F)C(F)F)c2)C(C(=O)Nc2ccccc2F)C1=O (centres unmarked) [Compound 539]
[1]
  Plant response rating, Foxtail, Giant: 90
  Foxtail, Giant plant response rating (0 to 100 scale, 0 is no effect, 100 is complete control): 90
[2]
  Plant response rating, Pigweed: 40
  Pigweed plant response rating (0 to 100 scale, 0 is no effect, 100 is complete control): 80
[3]
  Plant response rating, Kochia: 60
  Kochia plant response rating (0 to 100 scale, 0 is no effect, 100 is complete control): 70
[4]
  Plant response rating, Ragweed: 0
[4]; 500 g ai/ha, visual injury approx. 10 d
  Ragweed plant response rating (0 to 100 scale, 0 is no effect, 100 is complete control): 70
[5]
  Plant response rating, Barnyardgrass: 90
  Barnyardgrass plant response rating (0 to 100 scale, 0 is no effect, 100 is complete control): 90
[6]
  Plant response rating, Ryegrass, Italian: 30
  Ryegrass, Italian plant response rating (0 to 100 scale, 0 is no effect, 100 is complete control): 50
[7]; [21]
  Plant response rating, Foxtail, Giant: 90
[7]; [22]
  Plant response rating, Foxtail, Giant: 90
[8]; [21]
  Plant response rating, Corn: 70
[8]; [22]
  Plant response rating, Corn: 90
[9]; [21]
  Plant response rating, Pigweed: 20
[9]; [22]
  Plant response rating, Pigweed: 50
[10]; [21]
  Plant response rating, Kochia: 40
[10]; [22]
  Plant response rating, Kochia: 70
[11]; [21]
  Plant response rating, Galium: 70
[11]; [22]
  Plant response rating, Galium: 70
[12]; [21]
  Plant response rating, Ragweed: 0
[12]; [22]
  Plant response rating, Ragweed: 50
[13]; [23]
  Barnyardgrass plant response rating: 90
[13]; [22]
  Plant response rating, Barnyardgrass: 90
[14]; [21]
  Plant response rating, Wheat: 50
[14]; [22]
  Plant response rating, Wheat: 70
[15]; [23]
  Blackgrass plant response rating: 50
[15]; [22]
  Plant response rating, Blackgrass: 80
[16]; [21]
  Plant response rating, Ryegrass, Italian: 0
[16]; [22]
  Plant response rating, Ryegrass, Italian: 70
[17]
  Plant response rating, Rice: 0
[18]
  Plant response rating, Ducksalad: 95
[19]
  Plant response rating, Sedge, Umbrella: 0
[20]
  Plant response rating, Barnyardgrass: 65

## CC(C)Oc1cccc(C2CNC(=O)C2C(=O)Nc2cccc(F)c2F)c1 (centres unmarked) [Compound 553]
[1]
  Plant response rating, Foxtail, Giant: 90
  Foxtail, Giant plant response rating (0 to 100 scale, 0 is no effect, 100 is complete control): 90
[2]
  Plant response rating, Pigweed: 30
  Pigweed plant response rating (0 to 100 scale, 0 is no effect, 100 is complete control): 40
[3]
  Plant response rating, Kochia: 60
  Kochia plant response rating (0 to 100 scale, 0 is no effect, 100 is complete control): 80
[4]
  Plant response rating, Ragweed: 40
[5]
  Plant response rating, Barnyardgrass: 90
  Barnyardgrass plant response rating (0 to 100 scale, 0 is no effect, 100 is complete control): 90
[6]
  Plant response rating, Ryegrass, Italian: 70
  Ryegrass, Italian plant response rating (0 to 100 scale, 0 is no effect, 100 is complete control): 70
[7]; [21]
  Plant response rating, Foxtail, Giant: 70
[7]; [22]
  Plant response rating, Foxtail, Giant: 90
[8]; [21]
  Plant response rating, Corn: 80
[8]; [22]
  Plant response rating, Corn: 90
[9]; [21]
  Plant response rating, Pigweed: 20
[9]; [22]
  Plant response rating, Pigweed: 30
[10]; [21]
  Plant response rating, Kochia: 30
[10]; [22]
  Plant response rating, Kochia: 50
[11]; [21]
  Plant response rating, Galium: 60
[11]; [22]
  Plant response rating, Galium: 60
[12]; [21]
  Plant response rating, Ragweed: 30
[12]; [22]
  Plant response rating, Ragweed: 40
[13]; [21]
  Plant response rating, Barnyardgrass: 90
[13]; [22]
  Plant response rating, Barnyardgrass: 90
[14]; [21]
  Plant response rating, Wheat: 40
[14]; [22]
  Plant response rating, Wheat: 60
[15]; [21]
  Plant response rating, Blackgrass: 50
[15]; [22]
  Plant response rating, Blackgrass: 60
[16]; [21]
  Plant response rating, Ryegrass, Italian: 60
[16]; [22]
  Plant response rating, Ryegrass, Italian: 70
[17]
  Plant response rating, Rice: 10
[18]
  Plant response rating, Ducksalad: 100
[19]
  Plant response rating, Sedge, Umbrella: 0
[20]
  Plant response rating, Barnyardgrass: 65
